What was measured:
Format in all cases: in vivo
[1] = system: field corn (Zea mays L., var. Dekalb 535, CORN); assay: Pre-emerge test, crop safety; conditions: pre-emerge, 14 days after application, scale 0-100
Method in brief: (§1)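 Visual ratings on a 0-100 scale (0 no damage, 100 all plants dead) were taken at 14 days after treatment. Rates of 15-1000 g ai/ha in acetone, 187 l/ha, were sprayed onto soil one day after planting (pre-emerge) or onto 2-3 leaf plants with 0.25% v/v surfactant (post-emerge).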

[2] = system: upland rice (Oryza sp., var. Tebonnet, RICE); assay: Pre-emerge test, crop safety; conditions: pre-emerge, 14 days after application, scale 0-100
Method in brief: as §1

[3] = system: field corn (Zea mays L., var. Dekalb 535, CORN); assay: Post-emerge test, crop safety; conditions: post-emerge, 14 days after application, rating scale 0-100
Method in brief: (§2)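 Rating: 0–100 visual injury, 14 DAA. Application: acetone, 187 l/ha, 15–1000 g ai/ha, flat-fan track sprayer with nozzle 40–45 cm above soil or canopy. Post-emerge runs used 0.25% v/v surfactant on 2–3 leaf plants.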

[4] = system: upland rice (Oryza sp., var. Tebonnet, RICE); assay: Post-emerge test, crop safety; conditions: post-emerge, 14 days after application, rating scale 0-100
Method in brief: as §2

[5] = system: sicklepod (Cassia obtusifolia, CASOB); assay: Pre-emerge test, greenhouse herbicide activity screening; conditions: pre-emerge, 14 days after application, scale 0-100
Method in brief: (§3)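 Compounds in acetone were track-sprayed at 15–1000 g ai/ha: pre-emergence onto soil sown the previous day, then top-watered to incorporate and later bottom-watered; post-emergence onto 2–3 leaf plants with 0.25% v/v surfactant, bottom-watered only. Ratings on a 0–100 phytotoxicity scale were taken at day 14.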

[6] = system: large crabgrass (Digitaria sanguinalis, DIGSA); assay: as above; conditions: pre-emerge, 14 days after application, scale 0-100
Method in brief: as §3

[7] = system: lambsquarters (Chenopodium album, CHEAL); assay: as above; conditions: pre-emerge, 14 days after application, scale 0-100
Method in brief: as §3

[8] = system: barnyardgrass (Echinochloa crus-galli, ECHCG); assay: as above; conditions: pre-emerge, 14 days after application, scale 0-100
Method in brief: as §3

[9] = system: johnsongrass (Sorghum halepense, SORHA); assay: as above; conditions: pre-emerge, 14 days after application, scale 0-100
Method in brief: as §3

[10] = system: green foxtail (Setaria viridis, SETVI); assay: as above; conditions: pre-emerge, 14 days after application, scale 0-100
Method in brief: as §3

[11] = system: velvetleaf (Abutilon theophrasti, ABUTH); assay: as above; conditions: pre-emerge, 14 days after application, scale 0-100
Method in brief: as §3

[12] = system: ivyleaf morningglory (Ipomoea hederacea, IPOHE); assay: as above; conditions: pre-emerge, 14 days after application, scale 0-100
Method in brief: as §3

[13] = system: redroot pigweed (Amaranthus retroflexus, AMARE); assay: as above; conditions: pre-emerge, 14 days after application, scale 0-100
Method in brief: as §2

[14] = system: sicklepod (Cassia obtusifolia, CASOB); assay: Post-emerge test, greenhouse herbicide activity screening; conditions: post-emerge, 14 days after application, rating scale 0-100
Method in brief: (§4)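 Compounds in acetone were track-sprayed at 187 l/ha, 15–1000 g ai/ha, onto sandy loam pots. Pre-emerge seeds were sown one day before spraying, with surface watering afterwards. Post-emerge plants were at the 2–3 leaf stage and sprayed with 0.25% v/v non-ionic surfactant. Injury was rated 0–100 at 14 days.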

[15] = system: large crabgrass (Digitaria sanguinalis, DIGSA); assay: as above; conditions: post-emerge, 14 days after application, rating scale 0-100
Method in brief: as §4

[16] = system: lambsquarters (Chenopodium album, CHEAL); assay: as above; conditions: post-emerge, 14 days after application, rating scale 0-100
Method in brief: as §4

[17] = system: barnyardgrass (Echinochloa crus-galli, ECHCG); assay: as above; conditions: post-emerge, 14 days after application, rating scale 0-100
Method in brief: as §4

[18] = system: redroot pigweed (Amaranthus retroflexus, AMARE); assay: as above; conditions: post-emerge, 14 days after application, rating scale 0-100
Method in brief: as §4

[19] = system: johnsongrass (Sorghum halepense, SORHA); assay: as above; conditions: post-emerge, 14 days after application, rating scale 0-100
Method in brief: as §4

[20] = system: green foxtail (Setaria viridis, SETVI); assay: as above; conditions: post-emerge, 14 days after application, rating scale 0-100
Method in brief: as §4

[21] = system: common ragweed (Ambrosia artemisizfolia L., AMBEL); assay: as above; conditions: post-emerge, 14 days after application, rating scale 0-100
Method in brief: as §4

[22] = system: velvetleaf (Abutilon theophrasti, ABUTH); assay: as above; conditions: post-emerge, 14 days after application, rating scale 0-100
Method in brief: as §4

[23] = system: ivyleaf morningglory (Ipomoea hederacea, IPOHE); assay: as above; conditions: post-emerge, 14 days after application, rating scale 0-100
Method in brief: as §4

COc1c(Cl)cc(F)c(-n2c(=O)cc(C(F)(F)F)n(C)c2=O)c1NC(=O)c1ccc2c(Br)cccc2c1 [2-158]
95: phytotoxicity rating DIGSA ([6]; 250 g ai/ha) | phytotoxicity rating SETVI ([10]; 250 g ai/ha) | phytotoxicity rating ABUTH ([11]; 250 g ai/ha) | CHEAL phytotoxicity rating ([16]; 250 g ai/ha) | ABUTH phytotoxicity rating ([22]; 63 g ai/ha)
30: DIGSA phytotoxicity rating ([15]; 250 g ai/ha)
50: phytotoxicity rating ECHCG ([8]; 63 g ai/ha) | ECHCG phytotoxicity rating ([17]; 250 g ai/ha) | AMBEL phytotoxicity rating ([21]; 63 g ai/ha)
0: phytotoxicity rating CORN (crop damage) ([1]; 63 g ai/ha) | phytotoxicity rating CORN (crop damage) ([1]; 250 g ai/ha) | phytotoxicity rating RICE (crop damage) ([2]; 63 g ai/ha) | CORN phytotoxicity rating (crop damage) ([3]; 63 g ai/ha) | CORN phytotoxicity rating (crop damage) ([3]; 250 g ai/ha) | phytotoxicity rating CASOB ([5]; 63 g ai/ha) | phytotoxicity rating CASOB ([5]; 250 g ai/ha) | phytotoxicity rating SORHA ([9]; 63 g ai/ha) | phytotoxicity rating SETVI ([10]; 63 g ai/ha) | phytotoxicity rating IPOHE ([12]; 63 g ai/ha) | phytotoxicity rating IPOHE ([12]; 250 g ai/ha) | DIGSA phytotoxicity rating ([15]; 63 g ai/ha) | ECHCG phytotoxicity rating ([17]; 63 g ai/ha) | SORHA phytotoxicity rating ([19]; 63 g ai/ha) | SORHA phytotoxicity rating ([19]; 250 g ai/ha)
100: phytotoxicity rating CHEAL ([7]; 63 g ai/ha) | phytotoxicity rating CHEAL ([7]; 250 g ai/ha) | phytotoxicity rating AMARE ([13]; 63 g ai/ha) | phytotoxicity rating AMARE ([13]; 250 g ai/ha) | CASOB phytotoxicity rating ([14]; 250 g ai/ha) | AMARE phytotoxicity rating ([18]; 63 g ai/ha) | AMARE phytotoxicity rating ([18]; 250 g ai/ha) | AMBEL phytotoxicity rating ([21]; 250 g ai/ha) | ABUTH phytotoxicity rating ([22]; 250 g ai/ha)
70: SETVI phytotoxicity rating ([20]; 250 g ai/ha)
20: RICE phytotoxicity rating (crop damage) ([4]; 63 g ai/ha) | phytotoxicity rating SORHA ([9]; 250 g ai/ha) | IPOHE phytotoxicity rating ([23]; 63 g ai/ha)
10: phytotoxicity rating RICE (crop damage) ([2]; 250 g ai/ha) | SETVI phytotoxicity rating ([20]; 63 g ai/ha)
90: CASOB phytotoxicity rating ([14]; 63 g ai/ha) | CHEAL phytotoxicity rating ([16]; 63 g ai/ha)
80: phytotoxicity rating DIGSA ([6]; 63 g ai/ha) | phytotoxicity rating ECHCG ([8]; 250 g ai/ha) | phytotoxicity rating ABUTH ([11]; 63 g ai/ha) | IPOHE phytotoxicity rating ([23]; 250 g ai/ha)
60: RICE phytotoxicity rating (crop damage) ([4]; 250 g ai/ha)

Reference: patent publication US6355799B1, “Substituted benzene compounds, process for their preparation, and herbicidal and defoliant compositions containing them” (ISK Americas Incorporated, priority 1997, dated 2002)
